# Assay results reported in ChEMBL document CHEMBL4422622, “Identification of Mineralocorticoid Receptor Modulators with Low Impact on Electrolyte Homeostasis but Maintained Organ Protection” (J Med Chem, 2019).
# What was measured:
# [1] = Octanol-water partitioning co-efficient, log D of the compound at pH 7.4 by LC/MS/MS analysis; assay type: physicochemical
# [2] = Kinetic solubility of compound at pH 7.4 after 24 hrs by shake-flask assay; assay type: physicochemical; conditions: buffer, read-out: -log(solubility) (converted)
# [3] = Intrinsic clearance in human liver microsomes at 1 uM measured up to 30 mins in presence of NADPH by LC-MS/MS analysis; assay type: ADME, Microsome; conditions: read-out: CLH
# [4] = molecular target: T1, Mineralocorticoid receptor (Homo sapiens, UniProt P08235)
# T1 sequence (P08235 whole entry): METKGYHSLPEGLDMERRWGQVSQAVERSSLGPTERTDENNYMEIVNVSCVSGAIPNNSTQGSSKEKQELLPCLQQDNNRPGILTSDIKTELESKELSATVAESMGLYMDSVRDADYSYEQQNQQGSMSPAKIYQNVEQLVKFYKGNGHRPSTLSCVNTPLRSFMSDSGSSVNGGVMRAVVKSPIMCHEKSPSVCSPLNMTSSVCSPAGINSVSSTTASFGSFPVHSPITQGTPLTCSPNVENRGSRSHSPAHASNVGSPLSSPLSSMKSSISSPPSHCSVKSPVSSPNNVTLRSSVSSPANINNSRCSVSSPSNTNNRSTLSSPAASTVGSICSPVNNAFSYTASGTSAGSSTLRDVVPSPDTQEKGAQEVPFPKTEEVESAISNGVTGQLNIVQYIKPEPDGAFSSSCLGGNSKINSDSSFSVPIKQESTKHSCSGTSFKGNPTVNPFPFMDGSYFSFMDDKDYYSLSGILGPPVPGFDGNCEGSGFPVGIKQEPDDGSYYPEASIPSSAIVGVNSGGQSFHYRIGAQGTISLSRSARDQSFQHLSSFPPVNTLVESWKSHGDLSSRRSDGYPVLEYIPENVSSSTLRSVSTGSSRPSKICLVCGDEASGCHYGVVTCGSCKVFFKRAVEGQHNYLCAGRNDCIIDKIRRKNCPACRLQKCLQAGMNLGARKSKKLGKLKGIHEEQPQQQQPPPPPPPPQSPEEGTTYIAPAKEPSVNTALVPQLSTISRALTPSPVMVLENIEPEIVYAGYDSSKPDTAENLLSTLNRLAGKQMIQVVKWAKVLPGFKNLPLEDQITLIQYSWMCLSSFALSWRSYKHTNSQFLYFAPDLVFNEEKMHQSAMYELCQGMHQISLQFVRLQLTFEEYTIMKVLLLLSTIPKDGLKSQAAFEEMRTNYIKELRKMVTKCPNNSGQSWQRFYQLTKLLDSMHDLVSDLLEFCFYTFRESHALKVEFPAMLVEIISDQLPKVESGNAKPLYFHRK
# Description: Displacement of [3H]-aldosterone to human mineralocorticoid receptor LBD by radiometric binding assay
# [5] = molecular target: T1, Mineralocorticoid receptor; remark: listed apart in the source
# Description: Antagonist activity at gal4-fused human mineralocorticoid receptor LBD expressed in UAS-MR-bla HEK293 cells by luciferase reporter gene assay
# [6] = Apparent permeability in human Caco2 cells at 10 uM after 45 to 120 mins by LC/MS/MS analysis; assay type: ADME, cell-based; conditions: Caco-2
# [7] = Intrinsic clearance in human hepatocytes assessed per million cells at 1 uM measured up to 120 mins in presence of NADPH by LC-MS/MS analysis; assay type: ADME, cell-based, Hepatocyte; conditions: read-out: CLH
# [8] = molecular target: T2, Glucocorticoid receptor (Homo sapiens, UniProt P04150)
# T2 sequence (P04150 whole entry): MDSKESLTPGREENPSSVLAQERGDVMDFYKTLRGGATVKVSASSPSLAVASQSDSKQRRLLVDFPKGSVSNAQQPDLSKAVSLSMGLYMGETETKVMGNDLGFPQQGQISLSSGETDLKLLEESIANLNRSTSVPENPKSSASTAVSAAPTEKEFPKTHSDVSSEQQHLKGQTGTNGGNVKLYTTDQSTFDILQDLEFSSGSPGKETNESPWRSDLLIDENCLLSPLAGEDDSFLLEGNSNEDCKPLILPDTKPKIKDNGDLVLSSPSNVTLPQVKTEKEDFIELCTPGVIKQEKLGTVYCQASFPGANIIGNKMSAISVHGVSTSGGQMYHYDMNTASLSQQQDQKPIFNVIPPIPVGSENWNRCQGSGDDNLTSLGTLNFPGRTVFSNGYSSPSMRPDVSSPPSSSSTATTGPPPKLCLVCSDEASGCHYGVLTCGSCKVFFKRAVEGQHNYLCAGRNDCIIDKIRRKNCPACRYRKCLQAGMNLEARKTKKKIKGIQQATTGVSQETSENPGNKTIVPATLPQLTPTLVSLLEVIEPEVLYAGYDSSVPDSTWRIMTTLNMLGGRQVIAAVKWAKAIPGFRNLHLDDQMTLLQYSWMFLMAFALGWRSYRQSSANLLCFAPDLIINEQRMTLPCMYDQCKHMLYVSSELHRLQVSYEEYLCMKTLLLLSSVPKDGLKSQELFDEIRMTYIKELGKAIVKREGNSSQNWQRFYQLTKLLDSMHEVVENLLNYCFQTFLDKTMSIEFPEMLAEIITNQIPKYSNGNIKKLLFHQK
# Description: Binding affinity to recombinant human GR LBD by fluormone GS red-fluorescence polarization assay
Structure (SMILES),logD [1],solubility kinetic at 24 h [2] [µM],microsomal CLint at 1 µM [3] [µL/min/mg],Ki [4] [nM],IC50 [5] [nM],Papp at 10 µM [6] [×10⁻⁶ cm/s],hepatocyte CLint at 1 µM [7] [µL/min/1e6 cells],Ki [8] [nM]
O=C1COc2ccc(C(=O)N3CCCc4ccccc43)cc2N1,2.4,50.1,27,631,2000,–,–,–
O=C1COc2ccc(C(=O)N3CCOc4ccccc43)cc2N1,2,15.8,4,1000,3160,–,–,–
CNC(=O)C[C@H]1COc2cc(Cl)cc(C)c2N1C(=O)c1ccc2c(c1)NC(=O)CO2,1.2,–,–,398,2000,7.8,2.5,> 12600
CNC(=O)C[C@H]1COc2cc(F)ccc2N1C(=O)c1ccc2c(c1)NC(=O)OC2,0.9,–,–,> 6310,> 10000,–,< 1,> 15800
CCNC(=O)CC1COc2cc(F)ccc2N1C(=O)c1ccc2c(c1)NC(=O)CO2 (racemic),1.6,–,–,> 10000,> 10000,10,3,> 15800
NC(=O)C[C@H]1COc2cc(F)c(C3CC3)cc2N1C(=O)c1ccc2c(c1)NC(=O)CO2,2,–,–,3.16,79.4,–,< 2,2.51
CNC(=O)C[C@H]1COc2cc(F)c(CC(C)C)cc2N1C(=O)c1ccnc(NC(N)=O)c1,2.2,–,–,7.94,100,–,6.1,126
CC(C)Cc1cc2c(cc1Cl)OC[C@H](CC(N)=O)N2C(=O)c1ccc2c(c1)NC(=O)CO2,3.3,–,–,0.501,2.51,–,11,1.26
CC1CCc2ccccc2N1C(=O)c1ccc2c(c1)NC(=O)CO2 (racemic),2.7,50.1,128,794,1580,–,–,–
CNC(=O)C[C@H]1COc2cc(C(F)(F)F)ccc2N1C(=O)c1ccc2c(c1)NC(=O)CO2,2.4,–,–,12.6,79.4,19,3,398
CNC(=O)C[C@H]1COc2ccccc2N1C(=O)c1ccc2c(c1)NC(=O)CO2,1.1,–,–,–,–,6.8,< 1,3160
O=c1[nH]c2ccc(/C=C3\c4ccccc4COc4cc(F)ccc43)cc2[nH]1,4,–,–,–,–,–,–,–
CNC(=O)C[C@H]1CCc2cc(F)ccc2N1C(=O)c1ccc2c(c1)NC(=O)CO2,1.4,–,–,316,2000,6.3,< 1.8,6310
Cc1ccc(C2CCCCN2S(=O)(=O)c2ccc3c(c2)NC(=O)CO3)cc1 (racemic),3.3,< 0.794,120,–,6310,–,–,–
CNC(=O)C[C@H]1COc2cc(F)c(CC(C)C)cc2N1C(=O)c1ccc2c(c1)NC(=O)CO2,3.1,–,–,0.631,20,–,13,7.94
NC(=O)C[C@H]1CNc2cc(Cl)ccc2N1C(=O)c1ccc2c(c1)NC(=O)CO2,1.5,–,–,7.94,126,< 0.81,< 1,316
CS(=O)(=O)C[C@H]1COc2cc(F)ccc2N1C(=O)c1ccc2c(c1)NC(=O)CO2,1.4,–,–,0.316,2.51,10,8,20

Structure (SMILES),logD [1],solubility kinetic at 24 h [2] [µM],microsomal CLint at 1 µM [3] [µL/min/mg],Ki [4] [nM],IC50 [5] [nM],Papp at 10 µM [6] [×10⁻⁶ cm/s],hepatocyte CLint at 1 µM [7] [µL/min/1e6 cells],Ki [8] [nM]
CNC(=O)C[C@H]1COc2cc(C)ccc2N1C(=O)c1ccc2c(c1)NC(=O)CO2,1.6,–,–,3.98,100,14,2.8,316
CNC(=O)C[C@@H]1COc2cc(F)ccc2N1C(=O)c1ccc2c(c1)NC(=O)CO2,1.3,–,–,–,–,6.2,< 1,–
CNC(=O)C[C@H]1COc2cc(Br)ccc2N1C(=O)c1ccc2c(c1)NC(=O)CO2,2.2,–,–,–,–,23,5,126
NC(=O)C[C@H]1COCc2cc(F)ccc2N1C(=O)c1ccc2c(c1)NC(=O)CO2,0.4,–,–,> 10000,> 10000,< 0.6,< 1,> 15800
C[C@@H]1CCc2cc(F)ccc2N1C(=O)c1ccc2c(c1)NC(=O)CO2,2.9,100,70,6310,> 10000,–,–,–
CNC(=O)C[C@H]1COc2cc(F)c(OC(C)C)cc2N1C(=O)c1ccc2c(c1)NC(=O)CO2,1.8,–,–,10,200,–,< 2,79.4
Cc1ccc2c(c1)OC[C@](C)(CS(C)(=O)=O)N2C(=O)c1ccc2c(c1)NC(=O)CO2,1.8,–,–,15.8,63.1,38,60,1000
NS(=O)(=O)C[C@H]1COc2cc(F)ccc2N1C(=O)c1ccc2c(c1)NCCO2,1.3,–,–,39.8,200,–,< 1,1260
C[C@@H]1CN(c2ccc3c(n2)NC(=O)CO3)[C@H](c2ccccc2)CO1,2.7,–,–,–,–,–,–,–
CC(C)Cc1cc2c(cc1F)OC[C@H](CS(N)(=O)=O)N2C(=O)c1ccc2c(c1)NC(=O)CO2,2.8,–,–,< 0.316,0.794,–,18,1.58
NC(=O)C[C@H]1COc2cc(Cl)ccc2N1C(=O)c1ccc2c(c1)NC(=O)CO2,1.7,–,–,–,–,5.6,1.5,31.6
N=C(c1ccc2c(c1)NC(=O)CO2)[C@@H](Sc1nnc[nH]1)c1ccccc1,2.4,–,–,501,–,–,–,–
O=C1COc2ccc(C(=O)N3c4cc(CC5CCCCC5)c(F)cc4OC[C@@H]3CCO)cc2N1,> 4.4,–,–,10,251,–,26,200
NS(=O)(=O)C[C@H]1COc2cc(F)ccc2N1C(=O)c1ccc2cc[nH]c2c1,2.3,–,–,50.1,251,–,3.6,631
CNC(=O)C[C@H]1COc2cc(C#N)ccc2N1C(=O)c1ccc2c(c1)NC(=O)CO2,0.9,–,–,1000,6310,1.5,< 1,> 12600
NC(=O)C[C@H]1COc2cc(F)ccc2N1C(=O)c1ccc2c(c1)NC(=O)CO2,1.1,–,–,–,–,3,< 1,631
